Measured values as given in patent US8101642B2, “3-substituted propanamine compounds” (SK Biopharmaceuticals Co., Ltd., priority 2008, dated 2012).

Assays:
[1] = molecular target: T1, human recombinant norepinephrine transporter (Homo sapiens, UniProt P23975); assay: Norepinephrine transporter reuptake inhibition assay ([3H]Norepinephrine uptake); type: cell-based; conditions: for inhibition at 0.1 µM: 100 nM, MDCK cells with human recombinant norepinephrine transporter, read-out: Inhibition % at 100 nM NE reuptake
T1 construct: expressed in transfected cells; host or cells: MDCK
Procedure: Norepinephrine Transporter Reuptake Inhibition Assay
MDCK cells with stably expressed human recombinant norepinephrine transporter were plated one day. Test compounds were pre-incubated with cells (2×10^5/ml) in modified Tris-HEPES buffer pH 7.1 for 20 minutes at 25° C. and then they were incubated for additional 10 minutes after 25 nM of [^3H]Norepinephrine was added. A lysate was obtained from solubilized cells and the filtered lysate was counted to determine [^3H]Norepinephrine uptake. Reduction of [^3H]Norepinephrine uptake by 50 percent or more (≧50%) relative to 10 μM desipramine indicates significant inhibitory activity.

[2] = molecular target: T2, human serotonin transporter (Homo sapiens, UniProt P31645); assay: Serotonin transporter reuptake inhibition assay ([3H]Serotonin uptake); type: cell-based; conditions: recombinant HEK-293 cells with human serotonin transporter; for inhibition at 0.1 µM: HEK293, 100 nM, read-out: Inhibition % at 100 nM 5-HT reuptake
T2 construct: expressed in transfected cells; host or cells: HEK-293
Procedure: Serotonin Transporter Reuptake Inhibition Assay
The recombinant HEK-293 cells with human serotonin transporter were plated. Test compounds described in table 1 were pre-incubated with cells (2×10^5/ml) in modified Tris-HEPES buffer pH 7.1 for 20 minutes at 25° C. and then they were incubated for additional 10 minutes after 65 nM of [^3H]Serotonin was added. Bound cells were filtered and counted to determine [^3H]Serotonin uptake. Reduction of [^3H]Serotonin uptake by 50 percent or more (≧50%) relative to 10 μM fluoxetine indicates significant inhibitory activity.

[3] = molecular target: T3, human recombinant dopamine transporter (Homo sapiens, UniProt Q01959); assay: Dopamine transporter reuptake inhibition assay ([3H]Dopamine uptake); type: cell-based; conditions: CHO-K1 cells with human recombinant dopamine transporter; for inhibition at 0.1 µM: 100 nM, read-out: Inhibition % at 100 nM DA reuptake
T3 construct: expressed in transfected cells; host or cells: CHO-K1
Procedure: Dopamine Transporter Reuptake Inhibition Assay
CHO-K1 cells with human recombinant dopamine transporter were plated. Test compounds were pre-incubated with cells (4×10^5/ml) in modified Tris-HEPES buffer pH 7.1 for 20 minutes at 25° C. and then they were incubated for additional 10 minutes after 50 nM of [^3H]Dopamine was added. A lysate is obtained from solubilized cells and counted to determine [^3H]Dopamine uptake. Reduction of [^3H]Dopamine uptake by 50 percent or more (≧50%) relative to 10 μM nomifensine indicates significant inhibitory activity.

mice [4] = assay: Forced swimming test in mice (FST); type: in vivo; conditions: Mus musculus, 0.5 h, 30ip, reduction in duration of immobility vs control group, 30 min after administration
Procedure: Forced swimming Test in Mice (FST)
The Forced swimming test is an animal model based on the rodent's behavioral repertoire for screening drugs with potential antidepressant activity. As in several other models used for this goal, an uncontrollable stress stimulus produces behavioral changes that are sensitive to antidepressant treatment.
The mice were intraperitoneally treated with the test compound with an injection volume of […]. The group treated with 30% PEG400 served as a control group. Thirty minutes following administration, mice were individually forced to swim in a transparent glass vessel (14 cm high, 11.5 cm in diameter) filled with 10 cm of water at 25° C. The total duration of immobility (second) was measured during the last 4 minutes of a single 6-min test session. Mice were considered immobile when they made no further attempts to escape other than the movements necessary to keep their heads above the water. The potent ability of the compounds was determined as percent value of reduction in the duration of immobility comparing to the control group.

mice [5] = assay: Acetic acid induced writhing test (AA writhing test); type: in vivo; conditions: Mus musculus, 0.5 h, 30sc, reduction in number of writhing vs control group, 0.8% acetic acid ip 30 min after compound
Text: Acetic Acid Induced Writhing Test (AA Writhing Test)
The Acetic acid-induced writhing test is a well-established nociceptive test using a chemical stimulus. Although several animal models of nociceptive tests have been developed to examine and compare the anti-nociceptive effects of different drugs, the anti-nociceptive effects of antidepressants appear to be test-dependent. Indeed, the acetic acid-induced writhing test is more sensitive to antidepressants than other tests using thermal, mechanical or electrical stimuli.
The animals were subcutaneously treated with the test compound with an injection volume of 10 ml/kg. The group treated with 30% PEG400 or saline served as a control group. Thirty minutes later, the mice were intraperitoneally treated with 0.8% (v/v) acetic acid. Each mouse was then placed in a cage for individual observation. The writhing numbers for 10 minutes were counted. The writhe is operationally defined as a contraction of the abdomen followed by stretching of the hind limbs. The potent ability of the compounds was determined as percent value of reduction in the number of writhing comparing to the control group.

mice [6] = assay: Marble burying test; type: in vivo; conditions: reduction in number of marbles buried vs control group, 30 min after treatment
Text: The Marble burying test is a screening tool for putative anxiolytics. In this test, control mice naturally bury glass marbles in the cage bedding and the administration of anxiolytic compounds, including Diazepam, reduces the number of buried marbles. Positive compounds in the marble burying test including selective serotonin reuptake inhibitor may be especially beneficial to obsessive-compulsive disorder.
A group of mice was intraperitoneally treated with test compound dissolved in 30% PEG400 with an injection volume of 10 ml/kg. The group treated with only 30% PEG400 served as a control group. Thirty minutes after the treatment, the animals were individually placed in a polycarbonate cage which was same as used for animal housing with an open top located within a quiet room. Each cage consisted of ⅛ inch corn bedding 5 cm deep. Twenty four clean glass marbles (15 mm diameter) were evenly spaced in four rows of six on top of the bedding. Each mouse was left in the cage for 30 minutes and the number of marbles buried (buried more than ½ or ⅔) was counted. The potent ability of the compounds was determined as percent value of reduction in the number of marbles buried comparing to the control group.

T3 sequence (Q01959 whole entry): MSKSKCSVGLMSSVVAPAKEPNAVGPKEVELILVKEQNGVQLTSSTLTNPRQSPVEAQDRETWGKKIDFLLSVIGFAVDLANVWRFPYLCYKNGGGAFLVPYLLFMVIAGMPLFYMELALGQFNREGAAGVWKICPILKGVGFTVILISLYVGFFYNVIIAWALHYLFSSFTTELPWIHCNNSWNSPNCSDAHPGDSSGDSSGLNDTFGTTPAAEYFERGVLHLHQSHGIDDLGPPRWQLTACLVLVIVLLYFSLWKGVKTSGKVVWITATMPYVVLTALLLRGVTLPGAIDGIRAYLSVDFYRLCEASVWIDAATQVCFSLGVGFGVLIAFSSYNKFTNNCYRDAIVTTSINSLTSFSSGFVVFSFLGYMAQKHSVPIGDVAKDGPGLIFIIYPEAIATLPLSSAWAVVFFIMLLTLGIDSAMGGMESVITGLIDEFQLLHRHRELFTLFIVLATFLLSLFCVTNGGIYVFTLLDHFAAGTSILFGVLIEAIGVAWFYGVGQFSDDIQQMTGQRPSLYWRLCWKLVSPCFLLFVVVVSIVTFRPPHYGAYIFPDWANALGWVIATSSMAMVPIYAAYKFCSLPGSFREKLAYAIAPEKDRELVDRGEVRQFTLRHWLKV
T1 sequence (P23975 whole entry): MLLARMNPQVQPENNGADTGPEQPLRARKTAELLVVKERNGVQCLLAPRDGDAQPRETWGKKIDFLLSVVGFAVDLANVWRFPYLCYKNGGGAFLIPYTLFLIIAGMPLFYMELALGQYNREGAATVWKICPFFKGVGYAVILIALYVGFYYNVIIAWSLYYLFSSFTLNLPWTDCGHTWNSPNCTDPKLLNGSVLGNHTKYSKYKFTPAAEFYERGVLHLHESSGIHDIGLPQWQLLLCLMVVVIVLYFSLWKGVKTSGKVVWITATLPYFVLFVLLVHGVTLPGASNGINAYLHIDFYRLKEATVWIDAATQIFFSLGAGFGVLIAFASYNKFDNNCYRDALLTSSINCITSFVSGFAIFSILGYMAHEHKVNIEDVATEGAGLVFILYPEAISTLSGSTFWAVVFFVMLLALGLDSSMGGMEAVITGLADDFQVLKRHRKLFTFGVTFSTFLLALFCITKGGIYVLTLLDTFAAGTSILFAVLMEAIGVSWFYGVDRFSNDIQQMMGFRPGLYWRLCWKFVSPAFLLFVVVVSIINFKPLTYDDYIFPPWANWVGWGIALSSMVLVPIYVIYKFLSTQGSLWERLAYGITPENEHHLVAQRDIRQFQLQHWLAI
T2 sequence (P31645 whole entry): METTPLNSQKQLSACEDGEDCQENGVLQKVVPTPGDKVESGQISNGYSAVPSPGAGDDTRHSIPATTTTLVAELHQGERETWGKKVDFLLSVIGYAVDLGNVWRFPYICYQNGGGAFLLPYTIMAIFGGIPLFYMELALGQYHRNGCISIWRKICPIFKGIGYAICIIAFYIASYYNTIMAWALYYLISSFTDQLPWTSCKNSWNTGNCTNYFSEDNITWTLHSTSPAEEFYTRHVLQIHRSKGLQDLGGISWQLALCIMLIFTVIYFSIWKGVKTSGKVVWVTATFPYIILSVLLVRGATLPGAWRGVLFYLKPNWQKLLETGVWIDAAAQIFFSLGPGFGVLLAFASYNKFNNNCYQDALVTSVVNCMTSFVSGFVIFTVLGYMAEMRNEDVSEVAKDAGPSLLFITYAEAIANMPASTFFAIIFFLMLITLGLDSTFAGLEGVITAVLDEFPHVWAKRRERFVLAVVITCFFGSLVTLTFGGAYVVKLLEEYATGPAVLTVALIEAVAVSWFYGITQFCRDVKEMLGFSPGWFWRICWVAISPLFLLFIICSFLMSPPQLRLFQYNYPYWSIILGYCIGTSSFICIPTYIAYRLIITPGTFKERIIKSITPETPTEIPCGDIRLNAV

CNCCC(c1ccc2cc(F)ccc2c1)n1nnc(C)n1 (stereo not drawn) [Example 137, [3-(6-Fluoro-naphthalen-2-yl)-3-(5-methyl-tetrazol-2-yl)-propyl]-methyl-amine]
inhibition at 0.1 µM [1]: 39% | inhibition at 0.1 µM [2]: 58% | inhibition at 0.1 µM [3]: 10%

CNCCC(c1ccc2ccccc2c1)n1ncnn1 (stereo not drawn) [Example 119, Methyl-(3-naphthalen-2-yl-3-tetrazol-2-yl-propyl)-amine]
inhibition at 0.1 µM [1]: 84% | inhibition at 0.1 µM [2]: 78% | inhibition in vivo at 30 mg/kg (mice [4]): 43.2% | inhibition at 0.1 µM [3]: 10%

CN(C)CCC(c1ccc2ccccc2c1)n1ncnn1 (stereo not drawn) [Example 6, Dimethyl-(3-naphthalen-2-yl-3-tetrazol-2-yl-propyl)-amine]
inhibition at 0.1 µM [1]: 30% | inhibition at 0.1 µM [2]: 41% | inhibition in vivo at 30 mg/kg (mice [5]): 60.2% | Reduction % at 30ip (mice [6]): 87.7% | inhibition in vivo at 30 mg/kg (mice [4]): 41.4% | inhibition at 0.1 µM [3]: 20%

CNCCC(c1ccc2cc(OC)ccc2c1)n1nnc(C)n1 (stereo not drawn) [Example 167, [3-(6-Methoxy-naphthalen-2-yl)-3-(5-methyl-tetrazol-2-yl)-propyl]-methyl-amine]
inhibition at 0.1 µM [1]: 84% | inhibition at 0.1 µM [2]: 82% | inhibition in vivo at 30 mg/kg (mice [5]): 52.1% | Reduction % (at 10ip) (mice [6]; 10ip): 56.9% | inhibition in vivo at 30 mg/kg (mice [4]): 17.9% | inhibition at 0.1 µM [3]: 3%

CN(C)CCC(c1ccc2cc(Cl)ccc2c1)n1ncnn1 (stereo not drawn) [Example 14, [3-(6-Chloro-naphthalen-2-yl)-3-tetrazol-2-yl-propyl]-dimethyl-amine]
inhibition at 0.1 µM [1]: 32% | inhibition at 0.1 µM [2]: 46% | inhibition at 0.1 µM [3]: 18%

CNCCC(c1ccc2cc(OC)ccc2c1)n1ncnn1 (stereo not drawn) [Example 166, [3-(6-Methoxy-naphthalen-2-yl)-3-tetrazol-2-yl-propyl]-methyl-amine]
inhibition at 0.1 µM [1]: 70% | inhibition at 0.1 µM [2]: 88% | inhibition in vivo at 30 mg/kg (mice [4]): 28.9% | inhibition at 0.1 µM [3]: 4%

CNCC[C@@H](c1ccc2ccccc2c1)n1nnc(C)n1 [Example 188, (3S)-Methyl-[3-(5-methyl-tetrazol-2-yl)-3-naphthalen-2-yl-propyl]-amine]
inhibition at 0.1 µM [1]: 79% | inhibition at 0.1 µM [2]: 82% | inhibition in vivo at 30 mg/kg (mice [5]): 39.5% | Reduction % at 30ip (mice [6]): 70.7% | inhibition in vivo at 30 mg/kg (mice [4]): 36.7% | inhibition at 0.1 µM [3]: 7%

CNCCC(c1ccc(Cl)c(Cl)c1)n1ncnn1 (stereo not drawn) [Example 2, [3-(3,4-Dichloro-phenyl)-3-tetrazol-2-yl-propyl]-methyl-amine]
Inhibition % at 100 nM NE reuptake [1]: 56% | Inhibition % at 100 nM 5-HT reuptake [2]: 35% | inhibition in vivo at 30 mg/kg (mice [5]): 50.3% | Reduction % at 30ip (mice [6]): 100% | inhibition in vivo at 30 mg/kg (mice [4]): 82.4% | Inhibition % at 100 nM DA reuptake [3]: 48%

CNCCC(c1ccc2cc(F)ccc2c1)n1ncnn1 (stereo not drawn) [Example 136, [3-(6-Fluoro-naphthalen-2-yl)-3-tetrazol-2-yl-propyl]-methyl-amine]
inhibition at 0.1 µM [1]: 25% | inhibition at 0.1 µM [2]: 59% | inhibition at 0.1 µM [3]: 6%

CNCCC(c1cc2ccccc2cc1OC)n1nnc(C)n1 (stereo not drawn) [Example 135, [3-(3-Methoxy-naphthalen-2-yl)-3-(5-methyl-tetrazol-2-yl)-propyl]-methyl-amine]
inhibition at 0.1 µM [1]: 17% | inhibition at 0.1 µM [2]: 47% | inhibition at 0.1 µM [3]: -1%

CNCC[C@@H](c1ccc(Cl)c(Cl)c1)n1nnc(C)n1 [Example 129, (3S)-3-(3,4-dichlorophenyl)-N-methyl-3-(5-methyl-2H-tetrazol-2-yl)propan-1-amine]
inhibition at 0.1 µM [1]: 84% | inhibition at 0.1 µM [2]: 43% | inhibition in vivo at 30 mg/kg (mice [5]): 94.4% | Reduction % at 30ip (mice [6]): 94.3% | inhibition in vivo at 30 mg/kg (mice [4]): 36.7% | inhibition at 0.1 µM [3]: 62%

Cc1nnn(C(CCN(C)C)c2ccc3cc(F)ccc3c2)n1 (stereo not drawn) [Example 51, [3-(6-Fluoro-naphthalen-2-yl)-3-(5-methyl-tetrazol-2-yl)-propyl]-dimethyl-amine]
inhibition at 0.1 µM [1]: 10% | inhibition at 0.1 µM [2]: 61% | inhibition in vivo at 30 mg/kg (mice [5]): 51.4% | Reduction % at 30ip (mice [6]): 72.4% | inhibition in vivo at 30 mg/kg (mice [4]): 24.5% | inhibition at 0.1 µM [3]: 6%

CN(C)CCC(c1ccc2cc(F)ccc2c1)n1ncnn1 (stereo not drawn) [Example 50, [3-(6-Fluoro-naphthalen-2-yl)-3-tetrazol-2-yl-propyl]-dimethyl-amine]
inhibition at 0.1 µM [1]: 12% | inhibition at 0.1 µM [2]: 61% | inhibition in vivo at 30 mg/kg (mice [5]): 53.8% | Reduction % at 30ip (mice [6]): 86.2% | inhibition in vivo at 30 mg/kg (mice [4]): 35% | inhibition at 0.1 µM [3]: 7%

CNCCC(c1ccc2cc(C)ccc2c1)n1ncnn1 (stereo not drawn) [Example 122, Methyl-[3-(6-methyl-naphthalen-2-yl)-3-tetrazol-2-yl-propyl]-amine]
inhibition at 0.1 µM [1]: 55% | inhibition at 0.1 µM [2]: 93% | inhibition in vivo at 30 mg/kg (mice [4]): 43.7% | inhibition at 0.1 µM [3]: 3%

CN(C)CCC(c1ccc(Cl)c(Cl)c1)n1ncnn1 (stereo not drawn) [Example 1, [3-(3,4-Dichloro-phenyl)-3-tetrazol-2-yl-propyl]-dimethyl-amine]
inhibition at 0.1 µM [1]: 37% | inhibition at 0.1 µM [2]: 27% | inhibition in vivo at 30 mg/kg (mice [5]): 55.3% | Reduction % at 30ip (mice [6]): 54.8% | inhibition in vivo at 30 mg/kg (mice [4]): 24.9% | inhibition at 0.1 µM [3]: 58%

COc1ccc2cc(C(CCN(C)C)n3ncnn3)ccc2c1 (stereo not drawn) [Example 21, [3-(6-Methoxy-naphthalen-2-yl)-3-tetrazol-2-yl-propyl]-dimethyl-amine]
inhibition at 0.1 µM [1]: 39% | inhibition at 0.1 µM [2]: 44% | inhibition at 0.1 µM [3]: 36%
